# Reference: ChEMBL document CHEMBL1201861, “Genomics of Drug Sensitity in Cancer screening data, Wellcome Trust Sanger Institute”
# pIC50: −log10 of the molar value.
# Experiments:
# Type in all cases: functional, cell-based
# SK-MM-2 = assay: cells; conditions: Homo sapiens;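 further: growth inhibition of human SK-MM-2 cells, read out with a cell viability assay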
# Description: SANGER: Inhibition of human SK-MM-2 cell growth in a cell viability assay.
# NCI-H2227 = assay: cells; conditions: Homo sapiens;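 further: growth inhibition of the human cell line, read out with a cell viability assay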
# Description: SANGER: Inhibition of human NCI-H2227 cell growth in a cell viability assay.
# EB2 = assay: cells; conditions: Homo sapiens;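 further: growth inhibition of EB2 cells, read out with a cell viability assay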
# Description: SANGER: Inhibition of human EB2 cell growth in a cell viability assay.
# TUR = assay: cells; conditions: Homo sapiens;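 further: growth inhibition of human TUR cells, read out with a cell viability assay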
# Description: SANGER: Inhibition of human TUR cell growth in a cell viability assay.
# NCI-H1417 = assay: cells; conditions: Homo sapiens;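 further: human NCI-H1417 cells, growth inhibition determined with a cell viability readout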
# Description: SANGER: Inhibition of human NCI-H1417 cell growth in a cell viability assay.
# LP-1 = assay: cells; conditions: Homo sapiens;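 further: growth inhibition of human LP-1 cells, with the read-out taken from a cell viability assay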
# Description: SANGER: Inhibition of human LP-1 cell growth in a cell viability assay.
# NCI-H748 = assay: cells; conditions: Homo sapiens;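 further: growth inhibition of NCI-H748 cells, measured by a cell viability assay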
# Description: SANGER: Inhibition of human NCI-H748 cell growth in a cell viability assay.
# CAL-148 = assay: cells; conditions: Homo sapiens
# Description: SANGER: Inhibition of human CAL-148 cell growth in a cell viability assay.
# MC-CAR = assay: cells; conditions: Homo sapiens;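 further: growth inhibition of the human MC-CAR cell line, read out by a cell viability assay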
# Description: SANGER: Inhibition of human MC-CAR cell growth in a cell viability assay.
# IMR-5 = assay: cells; conditions: Homo sapiens;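 further: growth inhibition of human IMR-5 cells, read out with a cell viability assay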
# Description: SANGER: Inhibition of human IMR-5 cell growth in a cell viability assay.
# IM-9 = assay: SANGER: Inhibition of human IM-9 cell growth in a cell viability assay.
# NALM-6 = assay: cells; conditions: Homo sapiens;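 further: growth inhibition of NALM-6 cells, read out with a cell viability assay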
# Description: SANGER: Inhibition of human NALM-6 cell growth in a cell viability assay.
# LC-1F = assay: cells; conditions: Homo sapiens;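 further: growth inhibition of human LC-1F cells, read out with a cell viability assay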
# Description: SANGER: Inhibition of human LC-1F cell growth in a cell viability assay.
# LB647-SCLC = assay: cells; conditions: Homo sapiens;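 further: cell growth inhibition, read out by a viability assay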
# Description: SANGER: Inhibition of human LB647-SCLC cell growth in a cell viability assay.
# K052 = assay: cells; conditions: Homo sapiens;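 further: Read-out from a cell viability assay, IC50 reflecting suppression of K052 cell growth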
# Description: SANGER: Inhibition of human K052 cell growth in a cell viability assay.
# BC1 cell line = assay: SANGER: Inhibition of human BC-1 cell growth in a cell viability assay.
# KMS-12-PE = assay: cells; conditions: Homo sapiens;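 further: growth inhibition of human KMS-12-PE cells, measured with a cell viability assay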
# Description: SANGER: Inhibition of human KMS-12-PE cell growth in a cell viability assay.
# NCI-H64 = assay: cells; conditions: Homo sapiens;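 further: growth inhibition of NCI-H64 cells, read out with a cell viability assay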
# Description: SANGER: Inhibition of human NCI-H64 cell growth in a cell viability assay.
# SCLC-21H = assay: cells; conditions: Homo sapiens;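 further: growth inhibition of cultured human SCLC-21H cells, read out with a cell viability assay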
# Description: SANGER: Inhibition of human SCLC-21H cell growth in a cell viability assay.
# ST486 = assay: SANGER: Inhibition of human ST486 cell growth in a cell viability assay.
# NCI-H2171 = assay: cells; conditions: Homo sapiens;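 further: growth inhibition of human NCI-H2171 cells, read out by a cell viability assay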
# Description: SANGER: Inhibition of human NCI-H2171 cell growth in a cell viability assay.
# NCCIT = assay: SANGER: Inhibition of human NCCIT cell growth in a cell viability assay.
# NCI-H322M = assay: cells; conditions: Homo sapiens;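 further: cell viability assay measuring inhibition of growth of human NCI-H322M cells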
# Description: SANGER: Inhibition of human NCI-H322M cell growth in a cell viability assay.
# EB-3 = assay: cells; conditions: Homo sapiens;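 further: human EB-3 cells, growth inhibition read out via a cell viability assay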
# Description: SANGER: Inhibition of human EB-3 cell growth in a cell viability assay.
# DG-75 = assay: cells; conditions: Homo sapiens;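 further: growth inhibition of DG-75 cells, read out with a cell viability assay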
# Description: SANGER: Inhibition of human DG-75 cell growth in a cell viability assay.
# THP-1 = assay: cells; conditions: Homo sapiens;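 further: growth inhibition of THP-1 cells, read out via a cell viability assay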
# Description: SANGER: Inhibition of human THP-1 cell growth in a cell viability assay.
# NCI-H719 = assay: cells; conditions: Homo sapiens;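 further: growth inhibition of the cultured cell line, read out with a viability assay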
# Description: SANGER: Inhibition of human NCI-H719 cell growth in a cell viability assay.
# NCI-H187 = assay: cells; conditions: Homo sapiens;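 further: growth inhibition of NCI-H187 cells, read out as cell viability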
# Description: SANGER: Inhibition of human NCI-H187 cell growth in a cell viability assay.
# SR = assay: cells; conditions: Homo sapiens
# Description: SANGER: Inhibition of human SR cell growth in a cell viability assay.
# NCI-H1882 = assay: cells; conditions: Homo sapiens
# Description: SANGER: Inhibition of human NCI-H1882 cell growth in a cell viability assay.
# ECC4 = assay: cells; conditions: Homo sapiens;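 further: growth inhibition of ECC4 cells, read out with a cell viability assay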
# Description: SANGER: Inhibition of human ECC4 cell growth in a cell viability assay.
# NCI-H345 = assay: cells; conditions: Homo sapiens;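 further: growth inhibition of NCI-H345 cells measured with a cell viability assay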
# Description: SANGER: Inhibition of human NCI-H345 cell growth in a cell viability assay.
# RPMI-6666 = assay: cells; conditions: Homo sapiens
# Description: SANGER: Inhibition of human RPMI-6666 cell growth in a cell viability assay.
# NCI-H2141 = assay: cells; conditions: Homo sapiens;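 further: growth inhibition of human NCI-H2141 cells, read out with a cell viability assay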
# Description: SANGER: Inhibition of human NCI-H2141 cell growth in a cell viability assay.
# Daudi = assay: cells; conditions: Homo sapiens;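 further: growth inhibition of Daudi cells, read out by a viability assay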
# Description: SANGER: Inhibition of human Daudi cell growth in a cell viability assay.
# NCI-H1694 = assay: cells; conditions: Homo sapiens;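 further: cell viability assay measuring inhibition of growth in human NCI-H1694 cells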
# Description: SANGER: Inhibition of human NCI-H1694 cell growth in a cell viability assay.
# MDA-MB-134-VI = assay: cells; conditions: Homo sapiens
# Description: SANGER: Inhibition of human MDA-MB-134-VI cell growth in a cell viability assay.
# DMS-153 = assay: cells; conditions: Homo sapiens
# Description: SANGER: Inhibition of human DMS-153 cell growth in a cell viability assay.
# ARH-77 = assay: cells; conditions: Homo sapiens;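 further: growth inhibition of ARH-77 cells, read out by a cell viability assay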
# Description: SANGER: Inhibition of human ARH-77 cell growth in a cell viability assay.
# HCC1599 = assay: cells; conditions: Homo sapiens;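 further: growth inhibition of HCC1599 cells, read out in a cell viability assay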
# Description: SANGER: Inhibition of human HCC1599 cell growth in a cell viability assay.
# IST-SL2 = assay: cells; conditions: Homo sapiens;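 further: growth inhibition of human IST-SL2 cells, read out by a cell viability assay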
# Description: SANGER: Inhibition of human IST-SL2 cell growth in a cell viability assay.
# REH = assay: cells; conditions: Homo sapiens;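 further: growth inhibition of REH cells determined with a cell viability read-out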
# Description: SANGER: Inhibition of human REH cell growth in a cell viability assay.
# MOLT-13 = assay: cells; conditions: Homo sapiens;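 further: IC50 for suppression of MOLT-13 cell growth, read out with a cell viability assay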
# Description: SANGER: Inhibition of human MOLT-13 cell growth in a cell viability assay.
structure (smiles),measurement,setting,value
CC1=C2C[C@H]3[C@@H](CC=C4C[C@@H](O)CC[C@@]43C)[C@@H]2CC[C@]12O[C@@H]1C[C@H](C)CN[C@H]1[C@H]2C [CYCLOPAMINE],pIC50,SK-MM-2,< 4.80
same,pIC50,NCI-H2227,< 4.80
same,pIC50,EB2,< 4.80
same,pIC50,TUR,< 4.80
same,pIC50,NCI-H1417,< 4.80
same,pIC50,LP-1,< 4.80
same,pIC50,NCI-H748,< 4.80
same,pIC50,CAL-148,< 4.80
same,pIC50,MC-CAR,< 4.80
same,pIC50,IMR-5,< 4.80
same,pIC50,IM-9,< 4.80
same,pIC50,NALM-6,< 4.80
same,pIC50,LC-1F,< 4.80
same,pIC50,LB647-SCLC,< 4.80
same,pIC50,K052,< 4.80
same,pIC50,BC1 cell line,< 4.80
same,pIC50,KMS-12-PE,< 4.80
same,pIC50,NCI-H64,< 4.80
same,pIC50,SCLC-21H,< 4.80
same,pIC50,ST486,< 4.80
same,pIC50,NCI-H2171,< 4.80
same,pIC50,NCCIT,< 4.80
same,pIC50,NCI-H322M,< 4.80
same,pIC50,EB-3,< 4.80
same,pIC50,DG-75,< 4.80
same,pIC50,THP-1,< 4.80
same,pIC50,NCI-H719,< 4.80
same,pIC50,NCI-H187,< 4.80
same,pIC50,SR,< 4.80
same,pIC50,NCI-H1882,< 4.80
same,pIC50,ECC4,< 4.80
same,pIC50,NCI-H345,< 4.80
same,pIC50,RPMI-6666,< 4.80
same,pIC50,NCI-H2141,< 4.80
same,pIC50,Daudi,< 4.80
same,pIC50,NCI-H1694,< 4.80
same,pIC50,MDA-MB-134-VI,< 4.80
same,pIC50,DMS-153,< 4.80
same,pIC50,ARH-77,< 4.80
same,pIC50,HCC1599,< 4.80
same,pIC50,IST-SL2,< 4.80
same,pIC50,REH,< 4.80
CNC(=O)c1cc(Oc2ccc(NC(=O)Nc3ccc(Cl)c(C(F)(F)F)c3)cc2)ccn1 [SORAFENIB],pIC50,SK-MM-2,< 5.40
same,pIC50,NCI-H2227,< 5.40
same,pIC50,EB2,< 5.40
same,pIC50,TUR,< 5.40
same,pIC50,NCI-H1417,< 5.40
same,pIC50,LP-1,< 5.40
same,pIC50,NCI-H748,< 5.40
same,pIC50,CAL-148,< 5.40
same,pIC50,MC-CAR,< 5.40
same,pIC50,IMR-5,< 5.40
same,pIC50,IM-9,< 5.40
same,pIC50,NALM-6,< 5.40
same,pIC50,LC-1F,< 5.40
same,pIC50,LB647-SCLC,< 5.40
same,pIC50,K052,5.56
same,pIC50,BC1 cell line,5.43
same,pIC50,KMS-12-PE,< 5.40
same,pIC50,NCI-H64,< 5.40
same,pIC50,SCLC-21H,< 5.40
same,pIC50,ST486,5.42
same,pIC50,NCI-H2171,5.62
same,pIC50,NCCIT,< 5.40
same,pIC50,NCI-H322M,< 5.40
same,pIC50,EB-3,< 5.40
same,pIC50,DG-75,< 5.40
same,pIC50,THP-1,< 5.40
same,pIC50,NCI-H719,< 5.40
same,pIC50,NCI-H187,< 5.40
same,pIC50,SR,< 5.40
same,pIC50,NCI-H1882,< 5.40
same,pIC50,ECC4,< 5.40
same,pIC50,NCI-H345,< 5.40
same,pIC50,RPMI-6666,< 5.40
same,pIC50,NCI-H2141,< 5.40
same,pIC50,Daudi,< 5.40
same,pIC50,NCI-H1694,< 5.40
same,pIC50,MDA-MB-134-VI,< 5.40
same,pIC50,DMS-153,< 5.40
same,pIC50,ARH-77,< 5.40
same,pIC50,HCC1599,< 5.40
same,pIC50,IST-SL2,< 5.40
same,pIC50,MOLT-13,< 5.40
same,pIC50,REH,< 5.40
O=C(/C=C/c1ccccc1)NC(NC(=S)Nc1cccc2cccnc12)C(Cl)(Cl)Cl (stereo not given) [SALUBRINAL],pIC50,SK-MM-2,< 4.80
same,pIC50,NCI-H2227,< 4.80
same,pIC50,EB2,< 4.80
same,pIC50,TUR,< 4.80
same,pIC50,NCI-H1417,< 4.80
same,pIC50,LP-1,5.47
same,pIC50,NCI-H748,< 4.80
same,pIC50,CAL-148,< 4.80
same,pIC50,MC-CAR,< 4.80
same,pIC50,IMR-5,4.86
same,pIC50,IM-9,< 4.80
same,pIC50,NALM-6,4.88
same,pIC50,LC-1F,< 4.80
same,pIC50,LB647-SCLC,< 4.80
same,pIC50,K052,< 4.80
same,pIC50,BC1 cell line,4.82
same,pIC50,KMS-12-PE,< 4.80
same,pIC50,NCI-H64,< 4.80
same,pIC50,SCLC-21H,< 4.80
same,pIC50,ST486,5.07
same,pIC50,NCI-H2171,< 4.80
same,pIC50,NCCIT,4.94
same,pIC50,NCI-H322M,< 4.80
same,pIC50,EB-3,5.02
same,pIC50,DG-75,< 4.80
same,pIC50,THP-1,< 4.80
same,pIC50,NCI-H719,< 4.80
same,pIC50,NCI-H187,< 4.80
same,pIC50,SR,< 4.80
same,pIC50,NCI-H1882,< 4.80
same,pIC50,ECC4,< 4.80
same,pIC50,NCI-H345,< 4.80
same,pIC50,RPMI-6666,< 4.80
same,pIC50,NCI-H2141,< 4.80
same,pIC50,Daudi,5.20
same,pIC50,NCI-H1694,< 4.80
same,pIC50,MDA-MB-134-VI,< 4.80
same,pIC50,DMS-153,< 4.80
same,pIC50,ARH-77,< 4.80
same,pIC50,HCC1599,4.92
same,pIC50,IST-SL2,4.93
same,pIC50,MOLT-13,< 4.80
same,pIC50,REH,< 4.80
C=C1C(=O)O[C@@H]2C3O[C@]3(C)CC/C=C(\C)CC[C@@H]12 (stereo not given in full),pIC50,SK-MM-2,< 5.30
same,pIC50,NCI-H2227,< 5.30
same,pIC50,EB2,< 5.30
same,pIC50,TUR,< 5.30
same,pIC50,NCI-H1417,< 5.30
same,pIC50,LP-1,< 5.30
same,pIC50,NCI-H748,< 5.30
same,pIC50,CAL-148,< 5.30
same,pIC50,MC-CAR,< 5.30
same,pIC50,IMR-5,< 5.30
same,pIC50,IM-9,< 5.30
same,pIC50,NALM-6,< 5.30
same,pIC50,LC-1F,< 5.30
same,pIC50,LB647-SCLC,< 5.30
same,pIC50,K052,< 5.30
same,pIC50,BC1 cell line,< 5.30
same,pIC50,KMS-12-PE,< 5.30
same,pIC50,NCI-H64,< 5.30
same,pIC50,SCLC-21H,< 5.30
same,pIC50,ST486,< 5.30
same,pIC50,NCI-H2171,< 5.30
same,pIC50,NCCIT,< 5.30
same,pIC50,NCI-H322M,< 5.30
same,pIC50,EB-3,< 5.30
same,pIC50,DG-75,< 5.30
same,pIC50,THP-1,< 5.30
same,pIC50,NCI-H719,< 5.30
same,pIC50,NCI-H187,< 5.30
same,pIC50,SR,< 5.30
same,pIC50,NCI-H1882,< 5.30
same,pIC50,ECC4,< 5.30
same,pIC50,NCI-H345,< 5.30
same,pIC50,RPMI-6666,< 5.30
same,pIC50,NCI-H2141,< 5.30
same,pIC50,Daudi,< 5.30
same,pIC50,NCI-H1694,< 5.30
same,pIC50,MDA-MB-134-VI,< 5.30
same,pIC50,DMS-153,< 5.30
same,pIC50,ARH-77,< 5.30
same,pIC50,HCC1599,< 5.30
same,pIC50,IST-SL2,< 5.30
same,pIC50,REH,< 5.30
